# PubChem BioAssay AID1963975 (Molecular Pharmacology Branch, DTP, NCI, 2024)
# System: 624824-186-R-J2-PDC multicell spheroids, viability
# Test: Anticancer human tumor 624824-186-R-J2-PDC patient-derived colon adenocarcinoma cell line growth inhibition [PI3K]
# Conditions: for IC50: curve of first compound; for viability, T/C: stronger effect = lower value
# Method in brief: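 Tumor cells were combined with HUVEC and MSCs into spheroids, then dosed with PI3K-inhibitor combinations over half-log ranges capped near clinical Cmax or 10 microM.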
# [1] = second compound 0.0316 µM, first compound 0.0316 µM
# [2] = second compound 0.0316 µM, first compound 0.1 µM
# [3] = second compound 0.1 µM, first compound 0.0316 µM
# [4] = second compound 0.1 µM, first compound 0.1 µM
# [5] = second compound 0.316 µM, first compound 0.0316 µM
# [6] = second compound 0.316 µM, first compound 0.1 µM
# [7] = second compound 1 µM, first compound 0.0316 µM
# [8] = second compound 1 µM, first compound 0.1 µM
# [9] = second compound 3.16 µM, first compound 0.0316 µM
# [10] = second compound 3.16 µM, first compound 0.1 µM
# [11] = second compound 10 µM, first compound 0.0316 µM
# [12] = second compound 10 µM, first compound 0.1 µM
# [13] = second compound 0.0316 µM, first compound 0.316 µM
# [14] = second compound 0.0316 µM, first compound 1 µM
# [15] = second compound 0.0316 µM, first compound 3.16 µM
# [16] = second compound 0.0316 µM, first compound 10 µM
# [17] = second compound 0.1 µM, first compound 0.316 µM
# [18] = second compound 0.1 µM, first compound 1 µM
# [19] = second compound 0.1 µM, first compound 3.16 µM
# [20] = second compound 0.1 µM, first compound 10 µM
# [21] = second compound 0.316 µM, first compound 0.316 µM
# [22] = second compound 0.316 µM, first compound 1 µM
# [23] = second compound 0.316 µM, first compound 3.16 µM
# [24] = second compound 0.316 µM, first compound 10 µM
# [25] = second compound 1 µM, first compound 0.316 µM
# [26] = second compound 1 µM, first compound 1 µM
# [27] = second compound 1 µM, first compound 3.16 µM
# [28] = second compound 1 µM, first compound 10 µM
# [29] = second compound 3.16 µM, first compound 0.316 µM
# [30] = second compound 3.16 µM, first compound 1 µM
# [31] = second compound 3.16 µM, first compound 3.16 µM
# [32] = second compound 3.16 µM, first compound 10 µM
# [33] = second compound 10 µM, first compound 0.316 µM
# [34] = second compound 10 µM, first compound 1 µM
# [35] = second compound 10 µM, first compound 3.16 µM
# [36] = second compound 10 µM, first compound 10 µM
# 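Note: spheroids exposed to agents for 7 days before viability read.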
# 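Throughout, for viability, T/C: 100% = DMSO vehicle treated spheroids.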
compound,measurement,setting,value
CC(=O)c1c(C)c2cnc(Nc3ccc(N4CCNCC4)cn3)nc2n(C2CCCC2)c1=O + CC(Nc1ncnc2nc[nH]c12)c1cc2cccc(Cl)c2c(=O)n1-c1ccccc1,IC50,second compound 0.0316 µM,> 0.1 µM
same,IC50,second compound 0.1 µM,> 0.1 µM
same,IC50,second compound 0.316 µM,> 0.1 µM
same,IC50,second compound 1 µM,> 0.1 µM
same,IC50,second compound 3.16 µM,> 0.1 µM
same,IC50,second compound 10 µM,> 0.1 µM
same,"viability, T/C","second compound 0.0316 µM, first compound 0.000316 µM",78.8%
same,"viability, T/C","second compound 0.0316 µM, first compound 0.001 µM",118%
same,"viability, T/C","second compound 0.0316 µM, first compound 0.00316 µM",98.7%
same,"viability, T/C","second compound 0.0316 µM, first compound 0.01 µM",98.5%
same,"viability, T/C",[1],80.5%
same,"viability, T/C",[2],86.1%
same,"viability, T/C","second compound 0.1 µM, first compound 0.000316 µM",107%
same,"viability, T/C","second compound 0.1 µM, first compound 0.001 µM",85.2%
same,"viability, T/C","second compound 0.1 µM, first compound 0.00316 µM",84.4%
same,"viability, T/C","second compound 0.1 µM, first compound 0.01 µM",79.9%
same,"viability, T/C",[3],90%
same,"viability, T/C",[4],93.5%
same,"viability, T/C","second compound 0.316 µM, first compound 0.000316 µM",121%
same,"viability, T/C","second compound 0.316 µM, first compound 0.001 µM",134%
same,"viability, T/C","second compound 0.316 µM, first compound 0.00316 µM",79.8%
same,"viability, T/C","second compound 0.316 µM, first compound 0.01 µM",77.5%
same,"viability, T/C",[5],78.2%
same,"viability, T/C",[6],93%
same,"viability, T/C","second compound 1 µM, first compound 0.000316 µM",111%
same,"viability, T/C","second compound 1 µM, first compound 0.001 µM",96.6%
same,"viability, T/C","second compound 1 µM, first compound 0.00316 µM",89.5%
same,"viability, T/C","second compound 1 µM, first compound 0.01 µM",108%
same,"viability, T/C",[7],88.6%
same,"viability, T/C",[8],92.6%
same,"viability, T/C","second compound 3.16 µM, first compound 0.000316 µM",98.8%
same,"viability, T/C","second compound 3.16 µM, first compound 0.001 µM",83.6%
same,"viability, T/C","second compound 3.16 µM, first compound 0.00316 µM",91.9%
same,"viability, T/C","second compound 3.16 µM, first compound 0.01 µM",111%
same,"viability, T/C",[9],88.5%
same,"viability, T/C",[10],84%
same,"viability, T/C","second compound 10 µM, first compound 0.000316 µM",112%
same,"viability, T/C","second compound 10 µM, first compound 0.001 µM",110%
same,"viability, T/C","second compound 10 µM, first compound 0.00316 µM",107%
same,"viability, T/C","second compound 10 µM, first compound 0.01 µM",96.3%
same,"viability, T/C",[11],92.4%
same,"viability, T/C",[12],94%
CCCS(=O)(=O)Nc1ccc(F)c(C(=O)c2c[nH]c3ncc(-c4ccc(Cl)cc4)cc23)c1F + CC(Nc1ncnc2nc[nH]c12)c1cc2cccc(Cl)c2c(=O)n1-c1ccccc1,IC50,second compound 0.0316 µM,> 10 µM
same,IC50,second compound 0.1 µM,8.61 µM
same,IC50,second compound 0.316 µM,> 10 µM
same,IC50,second compound 1 µM,9.47 µM
same,IC50,second compound 3.16 µM,> 10 µM
same,IC50,second compound 10 µM,6.82 µM
same,"viability, T/C",[1],90.2%
same,"viability, T/C",[2],74.8%
same,"viability, T/C",[13],92.9%
same,"viability, T/C",[14],84%
same,"viability, T/C",[15],133%
same,"viability, T/C",[16],66.6%
same,"viability, T/C",[3],108%
same,"viability, T/C",[4],80.1%
same,"viability, T/C",[17],90%
same,"viability, T/C",[18],74.8%
same,"viability, T/C",[19],128%
same,"viability, T/C",[20],43%
same,"viability, T/C",[5],113%
same,"viability, T/C",[6],85.1%
same,"viability, T/C",[21],72.8%
same,"viability, T/C",[22],111%
same,"viability, T/C",[23],130%
same,"viability, T/C",[24],65.5%
same,"viability, T/C",[7],83.5%
same,"viability, T/C",[8],65.2%
same,"viability, T/C",[25],81%
same,"viability, T/C",[26],103%
same,"viability, T/C",[27],125%
same,"viability, T/C",[28],47.8%
same,"viability, T/C",[9],110%
same,"viability, T/C",[10],88.1%
same,"viability, T/C",[29],70.1%
same,"viability, T/C",[30],77.3%
same,"viability, T/C",[31],109%
same,"viability, T/C",[32],52.9%
same,"viability, T/C",[11],112%
same,"viability, T/C",[12],95%
same,"viability, T/C",[33],80.3%
same,"viability, T/C",[34],79.9%
same,"viability, T/C",[35],83.4%
same,"viability, T/C",[36],35.2%
CNC(=O)c1ccc(N2C(=S)N(c3ccc(C#N)c(C(F)(F)F)c3)C(=O)C2(C)C)cc1F + CC(Nc1ncnc2nc[nH]c12)c1cc2cccc(Cl)c2c(=O)n1-c1ccccc1,IC50,second compound 0.0316 µM,> 10 µM
same,IC50,second compound 0.1 µM,> 10 µM
same,IC50,second compound 0.316 µM,> 10 µM
same,IC50,second compound 1 µM,> 10 µM
same,IC50,second compound 3.16 µM,> 10 µM
same,IC50,second compound 10 µM,> 10 µM
same,"viability, T/C",[1],94.8%
same,"viability, T/C",[2],95.8%
same,"viability, T/C",[13],74.2%
same,"viability, T/C",[14],98.4%
same,"viability, T/C",[15],102%
same,"viability, T/C",[16],116%
same,"viability, T/C",[3],104%
same,"viability, T/C",[4],101%
same,"viability, T/C",[17],100%
same,"viability, T/C",[18],95.8%
same,"viability, T/C",[19],86.5%
same,"viability, T/C",[20],124%
same,"viability, T/C",[5],106%
same,"viability, T/C",[6],114%
same,"viability, T/C",[21],78.8%
same,"viability, T/C",[22],95.4%
same,"viability, T/C",[23],93.1%
same,"viability, T/C",[24],101%
same,"viability, T/C",[7],94.9%
same,"viability, T/C",[8],92.2%
same,"viability, T/C",[25],101%
same,"viability, T/C",[26],84.4%
same,"viability, T/C",[27],122%
same,"viability, T/C",[28],117%
same,"viability, T/C",[9],115%
same,"viability, T/C",[10],79.2%
same,"viability, T/C",[29],91.1%
same,"viability, T/C",[30],127%
same,"viability, T/C",[31],83.2%
same,"viability, T/C",[32],96.9%
same,"viability, T/C",[11],101%
same,"viability, T/C",[12],120%
same,"viability, T/C",[33],107%
same,"viability, T/C",[34],90.7%
same,"viability, T/C",[35],101%
same,"viability, T/C",[36],117%
Cn1cnc2c(F)c(Nc3ccc(Br)cc3Cl)c(C(=O)NOCCO)cc21 + CC(Nc1ncnc2nc[nH]c12)c1cc2cccc(Cl)c2c(=O)n1-c1ccccc1,IC50,second compound 0.0316 µM,> 3 µM
same,IC50,second compound 0.1 µM,> 3 µM
same,IC50,second compound 0.316 µM,> 3 µM
same,IC50,second compound 1 µM,> 3 µM
same,IC50,second compound 3.16 µM,> 3 µM
same,IC50,second compound 10 µM,> 3 µM
same,"viability, T/C","second compound 0.0316 µM, first compound 0.00949 µM",73.3%
same,"viability, T/C","second compound 0.0316 µM, first compound 0.03 µM",89.5%
same,"viability, T/C","second compound 0.0316 µM, first compound 0.0949 µM",69.2%
same,"viability, T/C","second compound 0.0316 µM, first compound 0.3 µM",63.5%
same,"viability, T/C","second compound 0.0316 µM, first compound 0.949 µM",68%
same,"viability, T/C","second compound 0.0316 µM, first compound 3 µM",60.6%
same,"viability, T/C","second compound 0.1 µM, first compound 0.00949 µM",79.8%
same,"viability, T/C","second compound 0.1 µM, first compound 0.03 µM",62.7%
same,"viability, T/C","second compound 0.1 µM, first compound 0.0949 µM",70.8%
same,"viability, T/C","second compound 0.1 µM, first compound 0.3 µM",55.8%
same,"viability, T/C","second compound 0.1 µM, first compound 0.949 µM",64.2%
same,"viability, T/C","second compound 0.1 µM, first compound 3 µM",62.1%
same,"viability, T/C","second compound 0.316 µM, first compound 0.00949 µM",86.9%
same,"viability, T/C","second compound 0.316 µM, first compound 0.03 µM",64.5%
same,"viability, T/C","second compound 0.316 µM, first compound 0.0949 µM",58.6%
same,"viability, T/C","second compound 0.316 µM, first compound 0.3 µM",59.5%
same,"viability, T/C","second compound 0.316 µM, first compound 0.949 µM",60.5%
same,"viability, T/C","second compound 0.316 µM, first compound 3 µM",61.2%
same,"viability, T/C","second compound 1 µM, first compound 0.00949 µM",75.2%
same,"viability, T/C","second compound 1 µM, first compound 0.03 µM",75.3%
same,"viability, T/C","second compound 1 µM, first compound 0.0949 µM",65.1%
same,"viability, T/C","second compound 1 µM, first compound 0.3 µM",67%
same,"viability, T/C","second compound 1 µM, first compound 0.949 µM",58.5%
same,"viability, T/C","second compound 1 µM, first compound 3 µM",53.5%
same,"viability, T/C","second compound 3.16 µM, first compound 0.00949 µM",78.2%
same,"viability, T/C","second compound 3.16 µM, first compound 0.03 µM",74.7%
same,"viability, T/C","second compound 3.16 µM, first compound 0.0949 µM",60.6%
same,"viability, T/C","second compound 3.16 µM, first compound 0.3 µM",59.6%
same,"viability, T/C","second compound 3.16 µM, first compound 0.949 µM",56.2%
same,"viability, T/C","second compound 3.16 µM, first compound 3 µM",50.6%
same,"viability, T/C","second compound 10 µM, first compound 0.00949 µM",72.7%
same,"viability, T/C","second compound 10 µM, first compound 0.03 µM",71.8%
same,"viability, T/C","second compound 10 µM, first compound 0.0949 µM",67.4%
same,"viability, T/C","second compound 10 µM, first compound 0.3 µM",60.7%
same,"viability, T/C","second compound 10 µM, first compound 0.949 µM",57.5%
same,"viability, T/C","second compound 10 µM, first compound 3 µM",51.2%
